Experiments:
Experiment in all cases: relative viability (nuclei count vs DMSO), 5 days (fraction); higher = more cells survive
Doramapimod + Tozasertib = compound: Cc1ccc(-n2nc(C(C)(C)C)cc2NC(=O)Nc2ccc(OCCN3CCOCC3)c3ccccc23)cc1 [Doramapimod] + Cc1cc(Nc2cc(N3CCN(C)CC3)nc(Sc3ccc(NC(=O)C4CC4)cc3)n2)n[nH]1 [Tozasertib] (partner 0.1 µM)
Outline: (§1)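 Five library-drug doses in √10 steps were combined with a fixed anchor-drug dose, or a single drug was given alone, by pin tool to lung cancer cell lines in 1536-well plates the day after seeding. Nuclei were stained and counted after 5 days. Relative viability is the nuclei count in treated wells over that in vehicle wells, taken as the median of duplicate plates.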

RAF265 + Palbociclib = compound: Cn1c(Nc2ccc(C(F)(F)F)cc2)nc2cc(Oc3ccnc(-c4ncc(C(F)(F)F)[nH]4)c3)ccc21 [RAF265] + CC(=O)c1c(C)c2cnc(Nc3ccc(N4CCNCC4)cn3)nc2n(C2CCCC2)c1=O [Palbociclib] (partner 0.5 µM)
Outline: as §1

RAF265 + Alpelisib = compound: Cn1c(Nc2ccc(C(F)(F)F)cc2)nc2cc(Oc3ccnc(-c4ncc(C(F)(F)F)[nH]4)c3)ccc21 [RAF265] + Cc1nc(NC(=O)N2CCC[C@H]2C(N)=O)sc1-c1ccnc(C(C)(C)C(F)(F)F)c1 [Alpelisib] (partner 2 µM)
Outline: as §1

RAF265 + Decitabine = compound: Cn1c(Nc2ccc(C(F)(F)F)cc2)nc2cc(Oc3ccnc(-c4ncc(C(F)(F)F)[nH]4)c3)ccc21 [RAF265] + Nc1ncn([C@H]2C[C@H](O)[C@@H](CO)O2)c(=O)n1 [Decitabine] (partner 2 µM)
Outline: as §1

Cell Line	relative viability (Doramapimod + Tozasertib; first compound 0.02 µM)	relative viability (Doramapimod + Tozasertib; first compound 0.06325 µM)	relative viability (Doramapimod + Tozasertib; first compound 0.2 µM)	relative viability (Doramapimod + Tozasertib; first compound 0.6325 µM)	relative viability (Doramapimod + Tozasertib; first compound 2 µM)	relative viability (RAF265 + Palbociclib; first compound 0.01 µM)	relative viability (RAF265 + Palbociclib; first compound 0.03162 µM)	relative viability (RAF265 + Palbociclib; first compound 0.1 µM)	relative viability (RAF265 + Palbociclib; first compound 0.3162 µM)	relative viability (RAF265 + Palbociclib; first compound 1 µM)	relative viability (RAF265 + Alpelisib; first compound 0.01 µM)	relative viability (RAF265 + Alpelisib; first compound 0.03162 µM)	relative viability (RAF265 + Alpelisib; first compound 0.1 µM)	relative viability (RAF265 + Alpelisib; first compound 0.3162 µM)	relative viability (RAF265 + Alpelisib; first compound 1 µM)	relative viability (RAF265 + Decitabine; first compound 0.01 µM)	relative viability (RAF265 + Decitabine; first compound 0.03162 µM)	relative viability (RAF265 + Decitabine; first compound 0.1 µM)	relative viability (RAF265 + Decitabine; first compound 0.3162 µM)	relative viability (RAF265 + Decitabine; first compound 1 µM)
PC-3 [JPC-3]	0.914	0.961	0.938	1.03	0.92	0.55	0.538	0.524	0.437	0.429	1	0.993	1.08	0.331	0.644	0.924	0.785	0.831	0.488	0.655
H3255	0.688	0.65	0.669	0.602	0.452	0.323	0.316	0.321	–	0.331	0.706	0.836	0.691	–	0.455	0.666	0.564	0.682	0.198	0.43
EMC-BAC-2	0.284	0.286	0.272	0.304	0.238	0.533	0.431	0.373	0.345	0.176	0.735	0.682	0.692	0.52	0.263	1.05	0.842	0.958	0.832	0.547
NCI-H650	0.757	0.823	0.804	0.798	0.654	0.306	0.345	0.303	0.232	0.206	1.35	1.17	1.21	0.852	0.398	0.342	0.319	0.395	0.308	0.288
SK-MES-1	0.94	0.869	0.81	0.856	0.781	0.291	0.233	0.241	0.252	0.204	0.942	0.807	0.337	0.242	0.183	0.383	0.295	0.3	0.231	0.221
NCI-H1355	0.543	0.538	0.55	0.556	0.495	0.449	0.364	0.328	0.248	0.181	0.829	0.791	0.794	0.427	0.229	0.387	0.323	0.363	0.326	0.26

Source: the supplement of paper PMC10307832
